Measurements published in patent US20080207692A1, “Stabilized and preserved ketoifen ophthalmic compositions” (priority 2005, published 2008).

Assays:
Assay type in all cases: physicochemical
[1] = Stability of ketotifen-perborate formulations filled in polypropylene bottles and stored at 55° C.; conditions: stored at 55° C., Table 2 formulations
Protocol: The stability of the formulations shown in Table 1 are evaluated by filling the formulations in bottles and storing the formulations at 55° C. for various times.

[2] = Hot stability: formulations heated at 100° C. for 24 hours
[3] = Compatibility of ketotifen with low concentrations of hydrogen peroxide

Stability of ketotifen (in words) [1]: stable
Stability of ketotifen (in words) [2]: stable
Compatibility with low concentrations of hydrogen peroxide ([3]; formulated at a pH lower than neutral pH): compatible
Compatibility with low concentrations of hydrogen peroxide ([3]; formulated at neutral pH, i.e., a pH of about 7): not compatible
Compound: CN1CCC(=C2c3ccccc3CC(=O)c3sccc32)CC1 [ketotifen]
